Assay results: ChEMBL document CHEMBL3044810, “Synthesis and herbicidal activity of alkyl 1-(3-trifluoromethylphenoxyacetoxy)-1-substituted methylphosphonates” (J Pestic Sci, 2007)

Assays:
Brassica napus [1] = experiment: Post-emergence herbicidal activity against Brassica napus (oilseed rape) assessed as growth inhibition at 1.5 ai kg/ha under green house conditions; assay type: functional
Digitaria sanguinalis [2] = experiment: Post-emergence herbicidal activity against Digitaria sanguinalis (hairy crabgrass) assessed as growth inhibition at 1.5 ai kg/ha under green house conditions; assay type: functional
Amaranthus retroflexus [3] = experiment: Post-emergence herbicidal activity against Amaranthus retroflexus assessed as growth inhibition at 1.5 ai kg/ha under green house conditions; assay type: functional
Brassica napus [4] = experiment: Pre-emergence herbicidal activity against Brassica napus (oilseed rape) assessed as growth inhibition at 1.5 ai kg/ha under green house conditions; assay type: functional
Digitaria sanguinalis [5] = experiment: Pre-emergence herbicidal activity against Digitaria sanguinalis (hairy crabgrass) assessed as growth inhibition at 1.5 ai kg/ha under green house conditions; assay type: functional
Echinochloa crus-galli [6] = experiment: Post-emergence herbicidal activity against Echinochloa crus-galli (barnyard grass) assessed as growth inhibition at 1.5 ai kg/ha under green house conditions; assay type: functional
Cucumis sativus = experiment: Pre-emergence growth inhibition of Cucumis sativus (cucumber) under green house conditions; assay type: functional, organism-based
Amaranthus retroflexus [7] = experiment: Pre-emergence herbicidal activity against Amaranthus retroflexus assessed as growth inhibition at 1.5 ai kg/ha under green house conditions; assay type: functional
Echinochloa crus-galli [8] = experiment: Pre-emergence herbicidal activity against Echinochloa crus-galli (barnyard grass) assessed as growth inhibition at 1.5 ai kg/ha under green house conditions; assay type: functional
Medicago sativa [9] = experiment: Post-emergence herbicidal activity against Medicago sativa (alfalfa) assessed as growth inhibition at 1.5 ai kg/ha under green house conditions; assay type: functional
Medicago sativa [10] = experiment: Pre-emergence herbicidal activity against Medicago sativa (alfalfa) assessed as growth inhibition at 1.5 ai kg/ha under green house conditions; assay type: functional

Structure (SMILES) | growth inhibition (GI) (Brassica napus [1]) [%] | growth inhibition (GI) (Digitaria sanguinalis [2]) [%] | growth inhibition (GI) (Amaranthus retroflexus [3]) [%] | growth inhibition (GI) (Brassica napus [4]) [%] | growth inhibition (GI) (Digitaria sanguinalis [5]) [%] | growth inhibition (GI) (Echinochloa crus-galli [6]) [%] | IC50 (Cucumis sativus) [µg/g] | growth inhibition (GI) (Amaranthus retroflexus [7]) [%] | growth inhibition (GI) (Echinochloa crus-galli [8]) [%] | growth inhibition (GI) (Medicago sativa [9]) [%] | growth inhibition (GI) (Medicago sativa [10]) [%]
CCOP(=O)(OCC)C(C)OC(=O)COc1ccc(C)cc1 (stereo not drawn) | 30.9 | 0 | 0 | 62.17 | 0 | 47.4 | – | – | – | – | –
COP(=O)(OC)C(OC(=O)COc1ccc(Cl)cc1Cl)c1ccccc1Cl (stereo not drawn) | 100 | 68.75 | 100 | 100 | 50 | 50 | 0.048 | 100 | 70 | – | –
COP(=O)([O-])COC(=O)COc1ccc(Cl)cc1Cl.[Na+] | 97.7 | 28.6 | 100 | 96.6 | 90.3 | 28 | 0.31 | 96.6 | 84.6 | 92.5 | 100
CCCC(OC(=O)COc1ccc(Cl)cc1Cl)P(=O)([O-])OC.[K+] (stereo not drawn) | 42.6 | 38.9 | 38.5 | 37 | 35.2 | 33.8 | 4.21 | 18.6 | 32.1 | 91.2 | 10.2
O=C(COc1ccc(Cl)cc1Cl)OC(c1ccccc1Cl)P(=O)(O)O (stereo not drawn) | 49 | 13 | 23 | 67 | 23 | 20.5 | – | 23 | 10 | – | –
COP(=O)(OC)C(C)OC(=O)COc1cccc(C(F)(F)F)c1 (stereo not drawn) | 92.6 | 39.1 | 27.3 | 56.1 | 73.1 | 12.3 | – | 43.4 | 57.3 | 100 | 63.8
CCOP(=O)(OCC)C(OC(=O)COc1cccc(C(F)(F)F)c1)c1ccc(Cl)cc1 (stereo not drawn) | 45.4 | 16 | 86.3 | 13.8 | 95.7 | 5.6 | 4.32 | 86.4 | 76.5 | 100 | 100
COP(=O)(OC)C(OC(=O)COc1cccc(C(F)(F)F)c1)c1ccc2c(c1)OCO2 (stereo not drawn) | 43.3 | 12 | 88.5 | 64.6 | 93.2 | 15.3 | 4.87 | 100 | 70.6 | 100 | 100
O=C(O)COc1ccc(Cl)cc1Cl [2,4-DICHLOROPHENOXYACETIC ACID] | 89.13 | 59.6 | 100 | 100 | 88.7 | 54.5 | 0.1379 | 95.5 | 80 | 95.5 | 90
COP(=O)(OC)C(C)OC(=O)COc1ccc(Cl)cc1Cl (stereo not drawn) [CLACYFOS] | 100 | 55 | 100 | 99.5 | 70 | 50 | – | 100 | 70 | 100 | 98
